From patent publication US9499570B2, “Boron containing small molecules” (priority 2010, dated 2016)
Entries after “also recorded” stand apart in the source; their conditions may differ.

Test system: Schistosoma mansoni schistosomula
Experiment: Schistosoma mansoni schistosomula phenotype screen in vitro
Conditions: First Set
From the text: Puerto Rican isolates of S. mansoni using Biomphalaria glabrata snails and golden hamsters as intermediate and definitive hosts, respectively, were maintained and handled in the University of California-San Francisco Sandler Center for Tropical Medicine. Patent B. glabrata snails (6-8 weeks after exposure to 5-10 infectious miracidia) were induced to shed infective larvae (cercariae) under light stimulus into the surrounding water. Cercariae were washed in rounds of ice-cold water and concentrated through and over sieves of varying pore sizes. They were then mechanically sheared (separation of heads from tails) as described in Colley D G, et al. Exp Parasitol 1974, 35:44-51, in ice-cold Incomplete Medium 169 (as described in Basch P F. J Parasitol 1981, 67:179-185, minus FBS and antibiotics) by passing 15 times through a double headed 22-gauge syringe needle connected to two 10 mL syringes. The resulting cercarial heads (schistosomula) were separated from their tails by swirling in a petri dish. Concentrated schistosomula were added to a sterile 1.5 mL centrifuge tube and allowed to settle over ice. Schistosomula were transferred to a sterile environment and washed 4 times in Incomplete Medium 169 prior to plating.
Two sets of screening were performed. In the first set, compounds were screened against schistosomula and observations were made at 24 hours, 2 days, 3 days, 4 days, and 6 days. In the second set, compounds were screened against schistosomula with observations at 24 hours, 2 days, 3 days, and 4 days and adult worms at 7 hours, 24 hours, 4 days, and 6 days.
Plates contain 200 schistosomula/well in […] complete Basch medium and were maintained at 37° C. in a 5% CO2 atmosphere. All compounds were tested in duplicate with at least two experimental replicates. Compounds and control compounds were added to the plates using the Biomek FXp using 96-well disposable tips. Final concentration of DMSO in each well was 0.5%.
A semi-quantitative and controlled nomenclature for phenotypes that can arise as a result of compound insult to both schistosomula and adults was utilized (Abdulla M H, et al., PLoS Negl Trop Dis 2009, 3:e478). Phenotypes were recorded by visual inspection and on a flexible time basis but at least at 24 h and 4 day time-points in the case of large scale screening. […] To help eliminate bias, two screen analysts scored phenotypes ‘blind’ both to knowledge of the contents of each screening plate and the phenotypes scored by his/her colleague. Upon completing their individual assessments, each analyst's ‘hit sheet’ was then compared to derive a ‘consensus hit sheet’. Discrepancies in analysts' hit sheets were re-evaluated under the microscope to eventually make a consensus hit call.
Hyper-coiled and coiled represent a verbal description of the visual phenotype as compared to the DMSO control. The + and ++ and +++ means more of the phenotype which preceded it. The − means less of the phenotype which preceded it. Results

COCCNc1ccc(C#N)c(Oc2ccc3c(c2)COB3O)n1 [2-(1-Hydroxy-1,3-dihydro-benzo[c][1,2]oxaborol-5-yloxy)-6-(2-methoxy-ethylamino)-nicotinonitrile]
Schistosomula phenotype day 6: O+ R and Partial D (Partial D=partial killing of worm population)

N#Cc1ccc(Oc2ccc3c(c2)COB3O)nc1OCC(F)F [2-(2,2-Difluoro-ethoxy)-6-(1-hydroxy-1,3-dihydro-benzo[c][1,2]oxaborol-5-yloxy)-nicotinonitrile]
Schistosomula phenotype day 3: O+ and Deg-M (Deg-M=worms in morphological disarray but still living) | Schistosomula phenotype day 6: R O+ and Partial D (Partial D=partial killing of worm population)

N#Cc1ccc(Oc2ccc3c(c2)COB3O)nc1NCCOCc1ccccc1 [2-(2-Benzyloxy-ethylamino)-6-(1-hydroxy-1,3-dihydro-benzo[c][1,2]oxaborol-5-yloxy)-nicotinonitrile]
Schistosomula phenotype 24 h: O+ and some and deg-M | Schistosomula phenotype day 3: O+ and Deg-M (Deg-M=worms in morphological disarray but still living) | Schistosomula phenotype day 6: R O+ and Partial D (Partial D=partial killing of worm population)

Cl.N#Cc1ccc(Oc2ccc3c(c2)COB3O)c(OCc2ccccn2)c1 [2-((5-Cyano-2-(1-hydroxy-1,3-dihydrobenzo[c][1,2]oxaborol-5-yloxy)phenoxy)methyl)pyridine hydrochloride]
Schistosomula phenotype 24 h (hydrochloride): R (R=round) and O++ | Schistosomula phenotype day 2 (hydrochloride): O+, and M− | Schistosomula phenotype day 4 (hydrochloride): O+, and Partial D (Partial D=partial killing of worm population) | Schistosomula phenotype day 6 (hydrochloride): O+, and Partial and D, R

N#Cc1ccc(Oc2ccc3c(c2)COB3O)nc1NCc1ccccc1 [2-Benzylamino-6-(1-hydroxy-1,3-dihydro-benzo[c][1,2]oxaborol-5-yloxy)-nicotinonitrile]
Schistosomula phenotype 24 h: O++ and some and deg-M | Schistosomula phenotype day 6: R O and Partial D (Partial D=partial killing of worm population)

CCOc1nc(Oc2ccc3c(c2)COB3O)ccc1C#N [2-Ethoxy-6-(1-hydroxy-1,3-dihydro-benzo[c][1,2]oxaborol-5-yloxy)-nicotinonitrile]
Schistosomula phenotype day 3: O+ and partial D | Schistosomula phenotype day 6: O+ R and Partial D (Partial D=partial killing of worm population)

N#Cc1ccc(Oc2ccc3c(c2)COB3O)c(OCC2CCCC2)c1 [3-(Cyclopentylmethoxy)-4-(1-hydroxy-1,3-dihydrobenzo[c][1,2]oxaborol-5-yloxy)benzonitrile]
Schistosomula phenotype day 4: R O− and Deg-M D

N#Cc1ccc(Oc2ccc3c(c2)COB3O)c(OC2CCCC2)c1 [3-(Cyclopentyloxy)-4-(1-hydroxy-1,3-dihydrobenzo[c][1,2]oxaborol-5-yloxy)benzonitrile]
Schistosomula phenotype 24 h: O++ and deg-M | Schistosomula phenotype day 3: O+ and Partial D (Partial D=partial killing of worm population) | Schistosomula phenotype day 6: R deg- and M D

N#Cc1ccc(Oc2ccc3c(c2)COB3O)c(OCC2CC2)c1 [3-(Cyclopropylmethoxy)-4-(1-hydroxy-1,3-dihydrobenzo[c][1,2]oxaborol-5-yloxy)benzonitrile]
Schistosomula phenotype day 3: O+ and partial D

COCCOc1nccc(Oc2ccc3c(c2)COB3O)c1C#N [4-(1-Hydroxy-1,3-dihydro-benzo[c][1,2]oxaborol-5-yloxy)-2-(2-methoxyethoxy)-nicotinonitrile]
Schistosomula phenotype 24 h: R (R=round) and O+ | Schistosomula phenotype day 3: O+ and some and partial D | Schistosomula phenotype day 6: O+ R and Partial D (Partial D=partial killing of worm population)

CC(C)OC(=O)c1ccc(Oc2ccc3c(c2)COB3O)c(F)c1 [5-(2-Fluoro-4-isopropyloxycarbonylphenoxy)-1-hydroxy-2,1-benzoxaborole]
Schistosomula phenotype day 4: O−, R

N#Cc1ccc(Oc2ccc3c(c2)COB3O)cc1C(F)(F)F [5-(4-Cyano-3-trifluoromethylphenoxy)-1,3-dihydro-1-hydroxy-2,1-benzoxaborole]
Schistosomula phenotype day 2: O−, and deg-m− | Schistosomula phenotype day 4: O, (O=overactive) and some and deg-m | Schistosomula phenotype day 6: O, (O=overactive) and some and deg-m

CCOC(=O)c1ccc(Oc2ccc3c(c2)COB3O)c(Oc2cc(C#N)ccn2)c1 [5-[4-Ethoxycarbonyl-2-(4-cyanopyridin-2-yloxy)phenoxy]-1,3-dihydro-1-hydroxy-2,1-benzoxaborole]
Schistosomula phenotype day 2: O, (O=overactive); also recorded: deg-m | Schistosomula phenotype day 4: O, (O=overactive) and some and deg-m | Schistosomula phenotype day 6: R, O,; also recorded: Partial D (Partial D=partial killing of worm population)

N#Cc1ccc(Oc2ccc3c(c2)COB3O)nc1OCC(F)(F)F [6-(1-Hydroxy-1,3-dihydro-benzo[c][1,2]oxaborol-5-yloxy)-2-(2,2,2-trifluoro-ethoxy)-nicotinonitrile]
Schistosomula phenotype day 6: O+ R and Partial D (Partial D=partial killing of worm population)

COCCNc1nc(Oc2ccc3c(c2)COB3O)ccc1C#N [6-(1-Hydroxy-1,3-dihydro-benzo[c][1,2]oxaborol-5-yloxy)-2-(2-methoxy-ethylamino)-nicotinonitrile]
Schistosomula phenotype day 6: R O and some and partial D

CC(=O)OCCOc1nc(Oc2ccc3c(c2)COB3O)ccc1C#N [6-(1-Hydroxy-1,3-dihydro-benzo[c][1,2]oxaborol-5-yloxy)-2-(acetyloxyethoxy)-nicotinonitrile]
Schistosomula phenotype day 3: O+ and partial D | Schistosomula phenotype day 6: R O+ and Partial D (Partial D=partial killing of worm population)

CC(C)COc1nc(Oc2ccc3c(c2)COB3O)ccc1C#N [6-(1-Hydroxy-1,3-dihydro-benzo[c][1,2]oxaborol-5-yloxy)-2-isobutoxy-nicotinonitrile]
Schistosomula phenotype 24 h: R− and O− | Schistosomula phenotype day 4: R (R=round) and O−

CC(C)Oc1nc(Oc2ccc3c(c2)COB3O)ccc1C#N [6-(1-Hydroxy-1,3-dihydro-benzo[c][1,2]oxaborol-5-yloxy)-2-isopropoxy-nicotinonitrile]
Schistosomula phenotype day 3: O+ and Deg-M (Deg-M=worms in morphological disarray but still living) | Schistosomula phenotype day 6: R O+ and Partial D (Partial D=partial killing of worm population)

CCCOc1nc(Oc2ccc3c(c2)COB3O)ccc1C#N [6-(1-Hydroxy-1,3-dihydro-benzo[c][1,2]oxaborol-5-yloxy)-2-propoxy-nicotinonitrile]
Schistosomula phenotype day 3: O+ and Deg-M (Deg-M=worms in morphological disarray but still living) | Schistosomula phenotype day 6: R O and partial D

N#Cc1ccc(Oc2ccc3c(c2)COB3O)nc1N1CCCC1 [6-(1-Hydroxy-1,3-dihydro-benzo[c][1,2]oxaborol-5-yloxy)-2-pyrrolidin-1-yl-nicotinonitrile]
Schistosomula phenotype day 3: O+ and Deg-M (Deg-M=worms in morphological disarray but still living) | Schistosomula phenotype day 6: R O and Partial D (Partial D=partial killing of worm population)

N#Cc1cnc(Oc2ccc3c(c2)COB3O)cc1OCCOC1CCCCO1 (centres unmarked) [6-(1-Hydroxy-1,3-dihydro-benzo[c][1,2]oxaborol-5-yloxy)-4-[2-(tetrahydro-pyran-2-yloxy)-ethoxy]-nicotinonitrile]
Schistosomula phenotype 24 h: O++ and deg-M | Schistosomula phenotype day 3: O++ and deg-M | Schistosomula phenotype day 6: Deg-M D

COCCN(C)c1nc(Oc2ccc3c(c2)COB3O)ccc1C#N [6-(1-hydroxy-1,3-dihydro-benzo[c][1,2]oxaborol-5-yloxy)-2-[(2-methoxy-ethyl)-methyl-amino]-nicotinonitrile]
Schistosomula phenotype day 3: O+ and Deg-M (Deg-M=worms in morphological disarray but still living) | Schistosomula phenotype day 6: R O and Partial D (Partial D=partial killing of worm population)

CCOC(=O)c1ccc(Oc2ccc3c(c2)COB3O)nc1OCC [Ethyl 2-ethoxy-6-(1-hydroxy-1,3-dihydrobenzo[c][1,2]oxaborol-5-yloxy)nicotinate]
Schistosomula phenotype day 2: (shrunk) | Schistosomula phenotype day 4: O, (O=overactive); also recorded: deg-m | Schistosomula phenotype day 6: R, (R=round); also recorded: Partial D (Partial D=partial killing of worm population)

CCOC(=O)c1cnc(Oc2ccc3c(c2)COB3O)c(Cl)c1 [Ethyl 5-chloro-6-(1-hydroxy-1,3-dihydrobenzo[c][1,2]oxaborol-5-yloxy)nicotinate]
Schistosomula phenotype day 6: R O and deg-M and partial D
